From ChEMBL document CHEMBL1134703, “Simplified catechin-gallate inhibitors of HIV-1 reverse transcriptase” (Bioorg Med Chem Lett, 2001)

Biological target: Human immunodeficiency virus type 1 reverse transcriptase (Human immunodeficiency virus 1, UniProt Q72547)
Test: Inhibition of polymerization in wild type HIV-1 RT with poly rC/dG12-18 template primer and [3H]dGTP

| IC50 [µM] | SMILES |
| --- | --- |
| 3.83 | O=C(OC1COc2cc(O)cc(O)c2C1)c1ccc(O)c(O)c1O (stereo not drawn) |
| 96.3 | O=C(OC1COc2cc(O)cc(O)c2C1)c1ccc(O)cc1O (stereo not drawn) |
| 10.7 | O=C(OCCC1COc2cc(O)c(O)cc2C1)c1ccc(O)c(O)c1O (stereo not drawn) |
| > 100 | O=C(OC1COc2cc(O)cc(O)c2C1)c1cccc(O)c1 (stereo not drawn) |
| > 100 | O=C(OC1COc2cc(O)cc(O)c2C1)c1ccccc1 (stereo not drawn) |
| 45.5 | O=C(OC1COc2cccc(O)c2C1)c1ccc(O)c(O)c1O (stereo not drawn) |
| > 100 | O=C(OC1COc2ccccc2C1)c1ccc(O)c(O)c1O (stereo not drawn) |
| 37.2 | O=C(OC1COc2cc(O)cc(O)c2C1)c1cccc(O)c1O (stereo not drawn) |
| 36.3 | O=C(OC1COc2cc(O)ccc2C1)c1ccc(O)c(O)c1O (stereo not drawn) |
| > 100 | Oc1cc(O)c2c(c1)O[C@H](c1ccc(O)c(O)c1)[C@H](O)C2 [(-)-EPICATECHIN] |
| 0.76 | O=C(O[C@@H]1Cc2c(O)cc(O)cc2O[C@@H]1c1ccc(O)c(O)c1)c1cc(O)c(O)c(O)c1 [EPICATECHIN GALLATE] |

| SMILES | IC50 [µM] |
| --- | --- |
| O=C(O[C@@H]1Cc2c(O)cc(O)cc2O[C@@H]1c1cc(O)c(O)c(O)c1)c1cc(O)c(O)c(O)c1 [EPIGALOCATECHIN GALLATE] | 0.73 |
| O=C(O)c1cc(O)c(O)c(O)c1 [GALLIC ACID] | > 100 |
